Results from article PMC7587962, “Evaluation of Cytotoxicity and α-Glucosidase Inhibitory Activity of Amide and Polyamino-Derivatives of Lupane Triterpenoids” (Molecules, 2020).

What was measured:
CCRF-CEM = assay: NCI-60 SRB screen: leukemia CCRF-CEM; format: cell-based; conditions: Homo sapiens, 48 h
SR = assay: NCI-60 SRB screen: leukemia SR; format: cell-based; conditions: Homo sapiens, 48 h
EKVX = assay: NCI-60 SRB screen: non-small cell lung cancer EKVX; format: cell-based, human
HOP-62 = assay: NCI-60 SRB screen: non-small cell lung cancer HOP-62; format: cell-based, human
HOP-92 = assay: NCI-60 SRB screen: non-small cell lung cancer HOP-92; format: cell-based, human
NCI-H226 = assay: NCI-60 SRB screen: non-small cell lung cancer NCI-H226; format: cell-based, human
NCI-H322M = assay: NCI-60 SRB screen: non-small cell lung cancer NCI-H322M; format: cell-based, human
COLO 205 = assay: NCI-60 SRB screen: colon cancer COLO 205; format: cell-based, human
HCC-2998 = assay: NCI-60 SRB screen: colon cancer HCC-2998; format: cell-based, human
HCT-116 = assay: NCI-60 SRB screen: colon cancer HCT-116; format: cell-based; conditions: Homo sapiens, HCT-116, 48 h
HCT-15 = assay: NCI-60 SRB screen: colon cancer HCT-15; format: cell-based, human
HT29 = assay: NCI-60 SRB screen: colon cancer HT29; format: cell-based; conditions: Homo sapiens, HT-29, 48 h
KM12 = assay: NCI-60 SRB screen: colon cancer KM12; format: cell-based, human
SW-620 = assay: NCI-60 SRB screen: colon cancer SW-620; format: cell-based; conditions: Homo sapiens, SW-620, 48 h
SF-295 = assay: NCI-60 SRB screen: CNS cancer SF-295; format: cell-based, human
SNB-19 = assay: NCI-60 SRB screen: CNS cancer SNB-19; format: cell-based, human
U251 = assay: NCI-60 SRB screen: CNS cancer U251; format: cell-based; conditions: Homo sapiens, U-251, 48 h
MALME-3M = assay: NCI-60 SRB screen: melanoma MALME-3M; format: cell-based, human
SK-MEL-2 = assay: NCI-60 SRB screen: melanoma SK-MEL-2; format: cell-based, human
SK-MEL-5 = assay: NCI-60 SRB screen: melanoma SK-MEL-5; format: cell-based, human
UACC-257 = assay: NCI-60 SRB screen: melanoma UACC-257; format: cell-based, human
IGROV1 = assay: NCI-60 SRB screen: ovarian cancer IGROV1; format: cell-based, human
NCI/ADR-RES = assay: NCI-60 SRB screen: ovarian cancer NCI/ADR-RES; format: cell-based, human
A498 = assay: NCI-60 SRB screen: renal cancer A498; format: cell-based, human
RXF 393 = assay: NCI-60 SRB screen: renal cancer RXF 393; format: cell-based, human
TK-10 = assay: NCI-60 SRB screen: renal cancer TK-10; format: cell-based, human
UO-31 = assay: NCI-60 SRB screen: renal cancer UO-31; format: cell-based, human
DU-145 = assay: NCI-60 SRB screen: prostate cancer DU-145; format: cell-based, human
MDA-MB-231/ATCC = assay: NCI-60 SRB screen: breast cancer MDA-MB-231/ATCC; format: cell-based; conditions: Homo sapiens, MDA-MB-231, 48 h
[1] = test system: 60 human tumor cell lines; conditions: single dose 10 µM
Leukemia subpanel = assay: NCI-60 screen, subpanel Leukemia
CNS cancer subpanel = assay: NCI-60 screen, subpanel CNS cancer
NSCL cancer subpanel = assay: NCI-60 screen, subpanel NSCL cancer
Colon Cancer subpanel = assay: NCI-60 screen, subpanel Colon Cancer
Renal Cancer subpanel = assay: NCI-60 screen, subpanel Renal Cancer
Breast cancer subpanel = assay: NCI-60 screen, subpanel Breast cancer
Prostate cancer subpanel = assay: NCI-60 screen, subpanel Prostate cancer
[2] = read-out: Percentage Cell Growth

SMILES: C=C(C)[C@@H]1CC[C@]2(C(N)=O)CC[C@]3(C)[C@H](CC[C@@H]4[C@@]5(C)CC[C@H](O)C(C)(C)[C@@H]5CC[C@]43C)[C@@H]12 [Compound 5]
- GI50 (CCRF-CEM): 4.49 µM
- activity at 10 µM (CCRF-CEM; [2]): 3.11%
- GI50 (SR): 4.14 µM
- activity at 10 µM (SR; [2]): 15.5%
- GI50 (EKVX; Homo sapiens, 48 h): 2.96 µM
- Percentage Cell Growth (EKVX; single dose 10 µM): −10.31%
- Percentage Cell Growth (HOP-62; HOP-62, single dose 10 µM): −72.18%
- GI50 (HOP-62; Homo sapiens, HOP-62, 48 h): 3.21 µM
- Percentage Cell Growth (HOP-92; HOP-92, single dose 10 µM): −62.83%
- GI50 (HOP-92; Homo sapiens, HOP-92, 48 h): 2.69 µM
- GI50 (NCI-H226; Homo sapiens, NCI-H226, 48 h): 4.11 µM
- Percentage Cell Growth (NCI-H226; NCI-H226, single dose 10 µM): −50.47%
- GI50 (NCI-H322M; Homo sapiens, 48 h): 2.59 µM
- Percentage Cell Growth (NCI-H322M; single dose 10 µM): −58.91%
- Percentage Cell Growth (COLO 205; COLO 205, single dose 10 µM): −66.21%
- GI50 (COLO 205; Homo sapiens, COLO 205, 48 h): 3.63 µM
- Percentage Cell Growth (HCC-2998; HCC-2998, single dose 10 µM): −39.02%
- GI50 (HCC-2998; Homo sapiens, HCC 2998, 48 h): 3.96 µM
- GI50 (HCT-116): 1.97 µM
- activity at 10 µM (HCT-116; [2]): -24.8%
- Percentage Cell Growth (HCT-15; HCT-15, single dose 10 µM): 6.36%
- GI50 (HCT-15; Homo sapiens, HCT-15, 48 h): 3.28 µM
- GI50 (HT29): 2.56 µM
- activity at 10 µM (HT29; [2]): -49.5%
- GI50 (KM12; Homo sapiens, KM12, 48 h): 3.2 µM
- Percentage Cell Growth (KM12; KM12, single dose 10 µM): −63.59%
- GI50 (SW-620): 3.88 µM
- activity at 10 µM (SW-620; [2]): -4.49%
- GI50 (SF-295; Homo sapiens, SF-295, 48 h): 3.39 µM
- Percentage Cell Growth (SF-295; SF-295, single dose 10 µM): −57.70%
- GI50 (SNB-19; Homo sapiens, SNB-19, 48 h): 4.57 µM
- Percentage Cell Growth (SNB-19; SNB-19, single dose 10 µM): 1.30%
- GI50 (U251): 2.54 µM
- activity at 10 µM (U251; [2]): -69.3%
- GI50 (MALME-3M; Homo sapiens, Malme-3M, 48 h): 2.39 µM
- Percentage Cell Growth (MALME-3M; MALME-3M, single dose 10 µM): −57.05%
- GI50 (SK-MEL-2; Homo sapiens, SK-MEL-2, 48 h): 7.63 µM
- Percentage Cell Growth (SK-MEL-2; SK-MEL-2, single dose 10 µM): −31.18%
- GI50 (SK-MEL-5; Homo sapiens, SK-MEL-5, 48 h): 5.22 µM
- Percentage Cell Growth (SK-MEL-5; SK-MEL-5, single dose 10 µM): −39.59%
- GI50 (UACC-257; Homo sapiens, UACC-257, 48 h): 13.2 µM
- Percentage Cell Growth (UACC-257; UACC-257, single dose 10 µM): −6.08%
- GI50 (IGROV1; Homo sapiens, IGROV-1, 48 h): 3.32 µM
- Percentage Cell Growth (IGROV1; IGROV1, single dose 10 µM): −58.08%
- GI50 (NCI/ADR-RES; Homo sapiens, 48 h): 3.17 µM
- Percentage Cell Growth (NCI/ADR-RES; single dose 10 µM): −8.91%
- Percentage Cell Growth (A498; A498, single dose 10 µM): −28.33%
- GI50 (A498; Homo sapiens, A498, 48 h): 12.2 µM
- GI50 (RXF 393; Homo sapiens, RXF 393, 48 h): 2.1 µM
- Percentage Cell Growth (RXF 393; RXF 393, single dose 10 µM): −49.35%
- GI50 (TK-10; Homo sapiens, TK-10, 48 h): 2.79 µM
- Percentage Cell Growth (TK-10; TK-10, single dose 10 µM): −69.84%
- GI50 (UO-31; Homo sapiens, UO-31, 48 h): 1.72 µM
- Percentage Cell Growth (UO-31; UO-31, single dose 10 µM): −100.00%
- Percentage Cell Growth (DU-145; DU-145, single dose 10 µM): −32.96%
- GI50 (DU-145; Homo sapiens, DU-145, 48 h): 3.21 µM
- GI50 (MDA-MB-231/ATCC): 1.97 µM
- activity at 10 µM (MDA-MB-231/ATCC; [2]): -28.4%
- cancer cell lethality, range of percentage growth ([1]; cell lines with negative growth): −1.70% to −100%
- cases of cancer cell lethality ([1]; number of cell lines): 49
- MID b, average sensitivity of all cell line of particular subpanel (Leukemia subpanel): 3.20 µM
- Selectivity, ratio MID a: MID b (Leukemia subpanel): 1.15
- MID b, average sensitivity of all cell line of particular subpanel (CNS cancer subpanel): 3.23 µM
- Selectivity, ratio MID a: MID b (CNS cancer subpanel): 1.14
- MID b, average sensitivity of all cell line of particular subpanel (NSCL cancer subpanel): 2.79 µM
- Selectivity, ratio MID a: MID b (NSCL cancer subpanel): 1.32
- MID b, average sensitivity of all cell line of particular subpanel (Colon Cancer subpanel): 3.21 µM
- Selectivity, ratio MID a: MID b (Colon Cancer subpanel): 1.14
- MID b, average sensitivity of all cell line of particular subpanel (Renal Cancer subpanel): 3.53 µM
- Selectivity, ratio MID a: MID b (Renal Cancer subpanel): 1.04
- MID b, average sensitivity of all cell line of particular subpanel (Breast cancer subpanel): 3.73 µM
- Selectivity, ratio MID a: MID b (Breast cancer subpanel): 0.98
- MID b, average sensitivity of all cell line of particular subpanel (Prostate cancer subpanel): 3.02 µM
- Selectivity, ratio MID a: MID b (Prostate cancer subpanel): 1.22
